Laboratory results: publication PMC5524405 (PLoS ONE, 2017)
One block for each compound: values may come before it.

How the values were obtained:
Human recombinant BTK = Human recombinant BTK (Homo sapiens, UniProt Q06187); test: Human recombinant BTK enzymatic assay (Caliper LabChip); settings: 20 μM ATP, read-out: Biochemical IC50, BTK
Text: (§6) Product turnover was quantitated using a Caliper LabChip 3000 (Caliper Life Sciences, Hopkinton, MA, USA). Similar assays were used for other kinases (Tec kinase, interleukin [IL]-2-inducible T-cell kinase, B-lymphocyte kinase, T cell-expressed kinase, and bone marrow-expressed kinase), with ATP concentrations equal to the apparent Michaelis constant (KM^app) for each kinase. […] [^33P]-ATP was used as a substrate at a concentration equal to KM^app, and incorporation of radiolabel into peptide or protein substrates was measured.

Tec = Tec (Homo sapiens, UniProt P42680); test: Tec kinase enzymatic assay; settings: ATP at apparent KM; read-out: Biochemical IC50, Tec
Text: as §6

ITK = ITK (Homo sapiens, UniProt Q08881); test: ITK enzymatic assay; settings: ATP at apparent KM; read-out: Biochemical IC50, ITK
Chain of ITK (Q08881 whole entry, species assumed): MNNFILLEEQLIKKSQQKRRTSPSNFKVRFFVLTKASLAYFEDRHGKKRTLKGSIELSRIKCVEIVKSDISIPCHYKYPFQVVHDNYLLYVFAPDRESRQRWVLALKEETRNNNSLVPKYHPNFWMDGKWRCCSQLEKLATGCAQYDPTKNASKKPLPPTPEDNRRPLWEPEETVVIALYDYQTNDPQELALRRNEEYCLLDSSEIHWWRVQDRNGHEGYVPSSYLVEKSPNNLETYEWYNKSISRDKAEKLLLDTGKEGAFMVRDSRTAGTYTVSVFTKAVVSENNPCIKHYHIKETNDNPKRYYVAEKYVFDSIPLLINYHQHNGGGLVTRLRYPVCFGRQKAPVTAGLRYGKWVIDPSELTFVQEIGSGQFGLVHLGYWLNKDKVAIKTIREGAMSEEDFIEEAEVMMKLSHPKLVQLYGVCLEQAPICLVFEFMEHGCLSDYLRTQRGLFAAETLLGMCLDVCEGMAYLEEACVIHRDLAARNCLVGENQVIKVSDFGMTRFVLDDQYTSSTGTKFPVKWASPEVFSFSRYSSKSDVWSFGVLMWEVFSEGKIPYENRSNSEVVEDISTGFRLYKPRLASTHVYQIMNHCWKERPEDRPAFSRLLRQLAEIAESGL
Text: as §6

Txk = Txk (Homo sapiens, UniProt P42681); test: Txk enzymatic assay; settings: ATP at apparent KM; read-out: Biochemical IC50, Txk
Experimental: (§7) Product turnover was quantitated using a Caliper LabChip 3000 (Caliper Life Sciences, Hopkinton, MA, USA). […] [^33P]-ATP was used as a substrate at a concentration equal to KM^app, and incorporation of radiolabel into peptide or protein substrates was measured.

FGR = FGR (Homo sapiens, UniProt P09769); test: FGR enzymatic assay; settings: read-out: Biochemical IC50, FGR
IGF1R = IGF1R (Homo sapiens, UniProt P08069); test: IGF1R enzymatic assay; settings: read-out: Biochemical IC50, IGF1R
Chain of IGF1R (P08069 31-1367, species assumed): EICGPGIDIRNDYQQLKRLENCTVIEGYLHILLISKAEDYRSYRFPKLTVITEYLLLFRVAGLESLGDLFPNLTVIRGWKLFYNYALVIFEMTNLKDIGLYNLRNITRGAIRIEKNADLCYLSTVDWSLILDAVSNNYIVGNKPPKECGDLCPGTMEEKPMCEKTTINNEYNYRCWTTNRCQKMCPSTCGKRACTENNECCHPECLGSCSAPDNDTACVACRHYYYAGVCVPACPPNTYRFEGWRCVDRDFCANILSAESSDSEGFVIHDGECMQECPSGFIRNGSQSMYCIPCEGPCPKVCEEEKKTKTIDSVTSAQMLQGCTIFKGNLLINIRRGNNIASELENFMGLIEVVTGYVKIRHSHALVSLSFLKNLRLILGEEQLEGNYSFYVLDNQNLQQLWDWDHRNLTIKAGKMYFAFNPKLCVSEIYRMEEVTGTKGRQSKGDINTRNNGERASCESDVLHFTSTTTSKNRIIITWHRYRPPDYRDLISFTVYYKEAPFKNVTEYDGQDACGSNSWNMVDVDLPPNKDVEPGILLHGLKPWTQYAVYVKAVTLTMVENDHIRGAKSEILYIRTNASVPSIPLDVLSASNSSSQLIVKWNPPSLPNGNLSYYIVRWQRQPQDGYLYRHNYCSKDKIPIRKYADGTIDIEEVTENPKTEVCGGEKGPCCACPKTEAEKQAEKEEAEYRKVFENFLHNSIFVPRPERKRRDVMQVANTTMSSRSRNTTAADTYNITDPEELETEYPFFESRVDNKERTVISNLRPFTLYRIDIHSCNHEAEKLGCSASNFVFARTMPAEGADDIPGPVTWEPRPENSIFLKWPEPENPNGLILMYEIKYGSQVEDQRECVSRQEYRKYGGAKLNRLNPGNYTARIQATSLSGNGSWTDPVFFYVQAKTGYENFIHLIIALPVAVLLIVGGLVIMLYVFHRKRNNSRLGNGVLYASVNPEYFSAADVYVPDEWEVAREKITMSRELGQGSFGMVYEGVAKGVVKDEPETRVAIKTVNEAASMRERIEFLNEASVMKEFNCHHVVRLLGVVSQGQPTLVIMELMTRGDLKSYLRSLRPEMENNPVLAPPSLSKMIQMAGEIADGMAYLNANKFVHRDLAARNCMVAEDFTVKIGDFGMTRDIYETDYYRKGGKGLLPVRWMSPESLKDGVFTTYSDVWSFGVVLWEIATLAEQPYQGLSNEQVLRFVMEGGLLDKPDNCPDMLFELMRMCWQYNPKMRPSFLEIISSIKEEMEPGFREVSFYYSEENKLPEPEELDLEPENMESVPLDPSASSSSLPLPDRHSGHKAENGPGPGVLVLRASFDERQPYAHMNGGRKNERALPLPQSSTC
Text: as §6

human B cells = test: Antigen receptor-dependent signaling and functional endpoints in human B cells (summary); format: cell-based; settings: read-out: IC50, antigen receptor-dependent signaling and functional endpoints (cytokine production, co-stimulatory molecule expression, proliferation)
Ramos B cells [1] = test: BCR-stimulated calcium flux in Ramos B cells; format: cell-based; settings: Homo sapiens, BCR (anti-IgM), read-out: IC50, Ca2+ flux
Experimental: BCR-stimulated calcium flux in Ramos B cells: Human Ramos (RA1) B cells, a Burkitt’s lymphoma cell line (ATCC, CRL-1596), pre-loaded with calcium indicator dye (BD Biosciences, San Jose, CA, USA) in media containing 10% FBS, were plated on black clear-bottom assay plates at a density of 1 × 10^6 cells/mL (150,000 cells per well).

[2] = system: human peripheral blood B cells; test: BCR-stimulated CD86 expression on human peripheral blood B cells; format: cell-based; settings: B-cell, BCR (anti-IgM)
Text: (§1) The cells were stained with fluorescein isothiocyanate (FITC)-conjugated mouse anti-human CD20 antibody (BD Pharmingen, San Diego, CA, USA) and either allophycocyanin (APC)-conjugated mouse anti-human CD86 monoclonal antibody (BD Pharmingen) or phycoerythrin (PE)-conjugated mouse anti-human CD69 monoclonal antibody (BD Pharmingen). The amount of CD86 or CD69 expression was quantitated by median fluorescence intensity (MFI) after gating on the CD20-positive B-cell population using fluorescence-activated cell sorting (FACS) analysis. For analogous experiments measuring the effect of CD40 or Toll-like receptor 4 (TLR4) stimulation on these endpoints, either human IZ-CD40L or lipopolysaccharide (LPS) was used to stimulate the cells.

[3] = system: CD27+CD20+ memory B cells (peripheral blood); test: BCR-stimulated CD86 expression on memory B cells; format: cell-based; settings: Homo sapiens, B-cell, BCR (anti-IgM)
Text: as §1

human tonsillar B cells [4] = test: BCR-stimulated TNF-α from human tonsillar B cells; format: cell-based; settings: B-cell, BCR (anti-IgM)
Experimental: (§2) After 1 hour of incubation at 37°C, the cells were stimulated with 40 μg/mL AffiniPure F(ab’)2 fragment goat anti-human IgM (Jackson ImmunoResearch) and 10 ng/mL IL-4 (Peprotech). After an additional 4.5 hours of incubation, the supernatants were collected and the levels of IL-6 and TNF-α were measured using an enzyme immunoassay.

human tonsillar B cells [5] = test: BCR-stimulated IL-6 from human tonsillar B cells; format: cell-based; settings: B-cell, BCR (anti-IgM)
Experimental: as §2

[6] = system: human peripheral blood B cells; test: CD40L-induced CD86 expression on peripheral blood B cells; format: cell-based; settings: B-cell, CD40 (CD40L)
Text: as §1

[7] = system: human peripheral blood B cells; test: CD40L-induced CD69 expression on peripheral blood B cells; format: cell-based; settings: B-cell, CD40 (CD40L)
Text: as §1

[8] = system: human peripheral blood mononuclear cells; test: IC-stimulated TNF-α production in peripheral blood mononuclear cells; format: cell-based; settings: PBMC, FcγR (immune complex)
Experimental: (§3) TNF-α and IL-6 levels were measured using enzyme-linked immunosorbent assay (ELISA; TNF-α OptEIA, BD Biosciences; IL-6 OptEIA, BD Biosciences). For analogous experiments measuring the effect of Toll-like receptor 4 stimulation on these endpoints, lipopolysaccharide (Sigma-Aldrich, St. Louis, MO, USA) was used as the stimulus.

[9] = system: human peripheral blood mononuclear cells; test: IC-stimulated IL-6 production in peripheral blood mononuclear cells; format: cell-based; settings: PBMC, FcγR (immune complex)
Experimental: as §3

[10] = system: human peripheral blood mononuclear cells; test: LPS (TLR4)-stimulated TNF-α in peripheral blood mononuclear cells; format: cell-based; settings: PBMC
Experimental: as §3

Ramos B cells [11] = test: BCR-stimulated PLCγ2 phosphorylation in Ramos B cells; format: cell-based; settings: Homo sapiens, anti-IgM, read-out: IC50, BTK-catalyzed phosphorylation of PLCγ2
Experimental: The cells were pelleted and lysed, and PLCγ2 levels were measured by immunoblot using rabbit anti-human phosphoY759-PLCγ2 (Cell Signaling Technology, Danvers, MA, USA) and analyzed using the Odyssey Infrared Imaging System (Li-Cor Biosciences, Lincoln, NE, USA) with normalization to an actin control to ensure consistent loading.

[12] = system: B cells in human whole blood; test: Human whole blood BCR-stimulated CD69 expression on B cells; format: cell-based; settings: B-cell
Text: The cells were stained with FITC-conjugated mouse anti-human CD20 (BD Pharmingen) and PE-conjugated mouse anti-human CD69 monoclonal antibody (BD Pharmingen), lysed and fixed, then washed. The amount of CD69 expression was quantitated by MFI after gating on the CD20-positive B-cell population as measured by FACS analysis.
The cells were stained with fluorescein isothiocyanate (FITC)-conjugated mouse anti-human CD20 (BD Pharmingen, San Diego, CA, USA) and phycoerythrin (PE)-conjugated mouse anti-human CD69 monoclonal antibody (BD Pharmingen), lysed, fixed, and then washed. The amount of CD69 expression was quantitated by MFI after gating on the CD20-positive B-cell population measured by FACS analysis.

[13] = system: basophils in human whole blood; test: Human whole blood FcεRI (anti-IgE)-stimulated CD63 expression on basophils; format: cell-based; settings: read-out: IC50, FcεRI-driven CD63 surface expression on basophils
Experimental: The blood was lysed and fixed, then washed. The percentage of CD63+ cells was measured after gating on the CCR3-positive basophil population by FACS analysis.
The blood was lysed, fixed, and then washed. The percentage of CD63+ cells was measured after gating on the C-C chemokine receptor type 3-positive basophil population by FACS analysis.

[14] = system: human monocytic osteoclast precursor cells; test: RANK-L-induced osteoclastogenesis; format: cell-based; settings: TRAP-positive multinucleated cells, 9 days in culture
Experimental: After 9 days in culture, cells were fixed and stained for tartrate-resistant acid phosphatase (TRAP; Sigma-Aldrich, St. Louis, MO, USA), and the number of TRAP-positive multinucleated cells (>2 nuclei per cell) was measured as described previously.

[15] = system: B cells in mouse whole blood; test: Mouse whole blood BCR-stimulated CD69 expression on B cells; format: cell-based
Experimental: For mouse whole blood, stimulation used AffiniPure F(ab’)2 fragment goat anti-mouse IgG + IgM (Jackson ImmunoResearch) at 200 μg/mL and 1 ng/mL mouse IL-4 (R&D Systems, Minneapolis, MN, USA) for 5 hours at 37°C with agitation. After staining with APC rat anti-mouse CD19 antibody (BD Biosciences) to identify the B cells, the amount of CD69 expression was quantitated by FACS using FITC-conjugated anti-mouse CD69 monoclonal antibody (BD Biosciences).

[16] = system: KLH-immunized BALB/c mice; test: Primary anti-KLH antibody responses in mice; format: in vivo, mouse
Experimental: Activity against a KLH-induced antibody response in mice was used as a measure of antigen-driven B-cell responses. Female BALB/c mice (8–12 weeks old) were immunized intraperitoneally (IP) with 250 μg of KLH (Pierce, Rockford, IL, USA) in phosphate-buffered saline on day 0. […] Captured anti-KLH antibodies were detected using horseradish peroxidase-conjugated antibody specific for mouse IgM or IgG (Southern Biotechnology Associates, Birmingham, AL, USA) and the 3,3′,5,5′-tetramethylbenzidine peroxidase substrate system (Kirkegaard and Perry Laboratories, Gaithersburg, MD, USA). Optical densities of developed plates were quantitated in a SpectraMax Plus ELISA plate reader (Molecular Devices, Sunnyvale, CA, USA). Sera collected from mice on day 7 or day 14 after immunization with KLH were pooled and used as a standard comparator.

CAIA BALB/c mice = test: Collagen antibody-induced arthritis (CAIA) mouse model; format: in vivo
Experimental: Three days later, mice were injected IP with 1.25 mg/kg LPS from Escherichia coli O111:B4 (Sigma-Aldrich). Mice were monitored daily for development and severity of paw inflammation as described previously [24].

CIA DBA/1 mice [17] = test: Collagen-induced arthritis (CIA) mouse model, preventative dosing, with or without MTX; format: in vivo
Experimental: (§4) Induction of CIA was performed as described previously. In brief, male DBA/1 mice (Harlan Laboratories, 8–10 weeks old) were injected subcutaneously at the base of the tail with bovine type II collagen (200 μg) admixed with reconstituted Sigma Adjuvant System (Sigma-Aldrich). The mice were boosted 21 days later in the same manner. […] Dosing proceeded from day 0 through study completion (36 days).
(§5) Threshold settings were optimized using histomorphometric methods.

CIA DBA/1 mice [18] = test: CIA mouse model, therapeutic dosing, with or without etanercept; format: in vivo; settings: for Clinical score reduction at end of study: therapeutic (from day 21)
Experimental: Induction of CIA was performed as described previously. In brief, male DBA/1 mice (Harlan Laboratories, 8–10 weeks old) were injected subcutaneously at the base of the tail with bovine type II collagen (200 μg) admixed with reconstituted Sigma Adjuvant System (Sigma-Aldrich). The mice were boosted 21 days later in the same manner. […]
as §5

CIA DBA/1 mice [19] = test: CIA mouse model, preventative dosing, with or without murine CTLA-4-Ig; format: in vivo; settings: BMS-986142 10 mg/kg PO QD
Experimental: as §4, §5

human tonsillar B cells [20] = test: cells; settings: B-cell, read-out: IC50, Proliferation
Experimental: The cells were then labeled with [^3H]-thymidine and incubated overnight at 37°C. Cells were then harvested onto filter plates and the amount of [^3H]-thymidine incorporation, as a measure of B-cell proliferation, was determined using liquid scintillation counting.

BLK = BLK (Homo sapiens, UniProt P51451); test: BLK enzymatic assay; settings: read-out: Biochemical IC50, BLK; ATP at apparent KM
Chain of BLK (P51451 whole entry, species assumed): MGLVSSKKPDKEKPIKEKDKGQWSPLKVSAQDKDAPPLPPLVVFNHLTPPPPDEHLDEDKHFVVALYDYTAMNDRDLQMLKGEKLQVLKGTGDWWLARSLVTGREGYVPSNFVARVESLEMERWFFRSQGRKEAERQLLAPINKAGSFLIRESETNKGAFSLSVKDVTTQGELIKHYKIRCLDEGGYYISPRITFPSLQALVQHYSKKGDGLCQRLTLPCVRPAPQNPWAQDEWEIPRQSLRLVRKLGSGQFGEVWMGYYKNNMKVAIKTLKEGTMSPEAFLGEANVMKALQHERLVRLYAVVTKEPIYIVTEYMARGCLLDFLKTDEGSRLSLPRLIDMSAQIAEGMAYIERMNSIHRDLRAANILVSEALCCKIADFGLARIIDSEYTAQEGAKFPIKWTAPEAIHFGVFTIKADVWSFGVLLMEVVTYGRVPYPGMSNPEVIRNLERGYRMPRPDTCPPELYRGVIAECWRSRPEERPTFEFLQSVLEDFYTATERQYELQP
Experimental: as §7

BMX = BMX (Homo sapiens, UniProt P51813); test: BMX enzymatic assay; settings: read-out: Biochemical IC50, BMX; ATP at apparent KM
Chain of BMX (P51813 whole entry, species assumed): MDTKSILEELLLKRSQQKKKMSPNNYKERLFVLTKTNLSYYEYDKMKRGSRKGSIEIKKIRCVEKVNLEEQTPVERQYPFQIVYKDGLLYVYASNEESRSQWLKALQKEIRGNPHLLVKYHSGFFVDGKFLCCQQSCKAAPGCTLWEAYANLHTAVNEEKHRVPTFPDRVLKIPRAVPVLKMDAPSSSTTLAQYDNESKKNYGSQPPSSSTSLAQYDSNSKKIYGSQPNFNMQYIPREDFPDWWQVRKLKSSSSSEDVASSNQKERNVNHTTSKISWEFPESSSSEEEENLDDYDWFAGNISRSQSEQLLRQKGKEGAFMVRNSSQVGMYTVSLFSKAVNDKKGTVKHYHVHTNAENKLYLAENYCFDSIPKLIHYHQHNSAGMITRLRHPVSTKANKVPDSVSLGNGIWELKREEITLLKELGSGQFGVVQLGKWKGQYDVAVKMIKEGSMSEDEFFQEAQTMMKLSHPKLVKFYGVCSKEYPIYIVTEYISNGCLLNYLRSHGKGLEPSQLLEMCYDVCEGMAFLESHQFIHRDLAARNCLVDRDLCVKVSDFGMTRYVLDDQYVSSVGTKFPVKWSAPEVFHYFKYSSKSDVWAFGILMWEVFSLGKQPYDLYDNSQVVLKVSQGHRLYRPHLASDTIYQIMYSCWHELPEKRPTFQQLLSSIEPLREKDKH
Experimental: as §7

Lck = Lck (Homo sapiens, UniProt P06239); test: Lck enzymatic assay; settings: read-out: Biochemical IC50, Lck
CSK = CSK (Homo sapiens, UniProt P41240); test: CSK enzymatic assay
Experimental: as §7

Src = Src (Homo sapiens, UniProt P12931); test: Src enzymatic assay
Chain of Src (P12931 whole entry, species assumed): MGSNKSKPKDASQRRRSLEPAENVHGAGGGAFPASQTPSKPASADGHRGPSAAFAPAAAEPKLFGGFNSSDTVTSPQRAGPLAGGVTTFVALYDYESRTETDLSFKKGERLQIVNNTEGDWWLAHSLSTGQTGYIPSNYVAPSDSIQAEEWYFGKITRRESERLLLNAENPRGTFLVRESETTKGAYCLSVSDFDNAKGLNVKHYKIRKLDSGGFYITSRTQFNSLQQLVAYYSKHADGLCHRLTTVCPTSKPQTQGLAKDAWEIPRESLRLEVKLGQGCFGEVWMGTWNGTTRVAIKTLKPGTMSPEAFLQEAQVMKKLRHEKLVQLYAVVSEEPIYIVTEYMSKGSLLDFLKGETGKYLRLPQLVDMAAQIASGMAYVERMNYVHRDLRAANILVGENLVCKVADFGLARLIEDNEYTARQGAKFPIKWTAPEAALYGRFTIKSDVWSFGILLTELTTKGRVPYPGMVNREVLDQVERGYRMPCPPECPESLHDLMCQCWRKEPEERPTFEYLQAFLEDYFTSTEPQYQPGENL
Text: as §6

Chain of Human recombinant BTK (Q06187 whole entry): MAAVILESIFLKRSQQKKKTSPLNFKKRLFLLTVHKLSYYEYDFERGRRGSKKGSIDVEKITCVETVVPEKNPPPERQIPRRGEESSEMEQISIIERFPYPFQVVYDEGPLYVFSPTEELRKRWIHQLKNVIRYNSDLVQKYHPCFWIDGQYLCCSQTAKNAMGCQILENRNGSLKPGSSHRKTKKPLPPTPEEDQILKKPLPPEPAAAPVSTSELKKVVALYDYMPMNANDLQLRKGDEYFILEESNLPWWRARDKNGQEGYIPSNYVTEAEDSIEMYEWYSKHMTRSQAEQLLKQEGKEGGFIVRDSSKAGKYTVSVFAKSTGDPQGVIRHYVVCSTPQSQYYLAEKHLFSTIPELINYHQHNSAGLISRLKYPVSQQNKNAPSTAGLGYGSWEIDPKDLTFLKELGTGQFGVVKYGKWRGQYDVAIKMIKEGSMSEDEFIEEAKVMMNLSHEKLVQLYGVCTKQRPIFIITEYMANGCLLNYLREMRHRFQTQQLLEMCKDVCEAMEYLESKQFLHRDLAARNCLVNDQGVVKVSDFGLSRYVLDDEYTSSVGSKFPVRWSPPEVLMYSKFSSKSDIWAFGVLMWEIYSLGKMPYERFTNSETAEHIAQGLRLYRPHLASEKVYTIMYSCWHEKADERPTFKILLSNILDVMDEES
Chain of Tec (P42680 whole entry): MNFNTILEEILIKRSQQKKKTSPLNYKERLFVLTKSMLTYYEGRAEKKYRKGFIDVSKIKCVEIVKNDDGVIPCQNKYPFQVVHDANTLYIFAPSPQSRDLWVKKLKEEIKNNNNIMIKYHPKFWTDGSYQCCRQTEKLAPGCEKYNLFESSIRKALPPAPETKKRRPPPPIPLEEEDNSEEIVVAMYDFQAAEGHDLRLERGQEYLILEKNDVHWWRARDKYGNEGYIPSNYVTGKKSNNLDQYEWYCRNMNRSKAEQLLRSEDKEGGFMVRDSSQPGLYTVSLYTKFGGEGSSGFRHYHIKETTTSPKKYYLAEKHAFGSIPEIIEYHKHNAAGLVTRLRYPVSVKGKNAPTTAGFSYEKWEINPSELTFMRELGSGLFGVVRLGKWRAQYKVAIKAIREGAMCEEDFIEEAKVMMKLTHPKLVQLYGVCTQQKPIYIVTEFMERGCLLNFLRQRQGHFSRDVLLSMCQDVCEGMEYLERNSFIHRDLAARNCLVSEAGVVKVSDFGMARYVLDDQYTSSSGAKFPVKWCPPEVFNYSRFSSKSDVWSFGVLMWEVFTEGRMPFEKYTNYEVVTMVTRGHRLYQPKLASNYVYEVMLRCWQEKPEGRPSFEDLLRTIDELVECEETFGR

IC50 (Human recombinant BTK): 0.5 nM | IC50 (Tec): 10 nM | IC50 (ITK): 15 nM | IC50 (Txk): 28 nM | IC50 (FGR): 81 nM | IC50 (IGF1R): 247 nM | IC50 (Ramos B cells [1]): 9 ± 5 nM | IC50 [2]: 4 ± 3 nM | IC50 [3]: 3 ± 3 nM | IC50 (human tonsillar B cells [4]): 3 ± 3 nM | IC50 (human tonsillar B cells [5]): 5 ± 3 nM | IC50 [6]: > 10000 nM | IC50 [7]: > 10000 nM | IC50 [8]: 3 ± 3 nM | IC50 [9]: 4 ± 3 nM | IC50 [10]: > 30000 nM | IC50 (Ramos B cells [11]): ~20 nM | IC50 [12]: 90 nM | IC50 [13]: 89 nM | IC50 [15]: 140 nM | IC50 (BLK): 23 nM | IC50 (BMX): 32 nM | IC50 (Lck): 71 nM | IC50 (CSK): 148 nM | IC50 (Src): 1110 nM
Structure (SMILES): Cc1c(-c2c(F)cc(C(N)=O)c3[nH]c4c(c23)CC[C@H](C(C)(C)O)C4)cccc1-n1c(=O)c2cccc(F)c2n(C)c1=O [BMS-986142, 6-fluoro-5-(R)-(3-(S)-(8-fluoro-1-methyl-2,4-dioxo-1,2-dihydroquinazolin-3(4H)-yl)-2-methylphenyl)-2-(S)-(2-hydroxypropan-2-yl)-2,3,4,9-tetrahydro-1H-carbazole-8-carboxamide]
IC50 (human B cells): ≤ 5 nM | Lowest concentration at which inhibition of RANK-L-induced osteoclastogenesis was evident [14]: 15 nM | Inhibition of anti-KLH IgM response ([16]; 30 mg/kg PO QD, day 7): 77% | Inhibition of anti-KLH IgG response ([16]; 30 mg/kg PO QD, day 14): 87% | Anti-KLH IgM and IgG antibody responses versus vehicle ([16]; 10 and 30 mg/kg PO QD): Significant reductions | Reduction of clinical scores at study end (CAIA BALB/c mice; 5 mg/kg, prophylactic): 72% | Inhibition of clinical scores at study end (CAIA BALB/c mice; 20 mg/kg, prophylactic): > 90% | Histological bone resorption and inflammation scores of hind paws (CAIA BALB/c mice; 5 and 20 mg/kg): effective at reducing bone resorption as well as inflammation scores | Disease-associated increase in splenic CD138+B220low plasma cells (CIA DBA/1 mice [17]): inhibited | Effect on B cell numbers (CIA DBA/1 mice [17]): did not deplete B cells | Expression of CD38 on plasma cells induced by disease (CIA DBA/1 mice [17]): inhibited | Reduction in clinically evident disease at end of study (CIA DBA/1 mice [17]; 4 mg/kg PO QD): 26% | Reduction in clinically evident disease at end of study (CIA DBA/1 mice [17]; 10 mg/kg PO QD): 43% | Reduction in clinically evident disease at end of study (CIA DBA/1 mice [17]; 30 mg/kg PO QD): 79% | Serum anti-collagen II IgG titers (CIA DBA/1 mice [17]; 10 and 30 mg/kg): significantly inhibited | Reduction in inflammation and bone resorption (histology) (CIA DBA/1 mice [17]; BMS-986142 4 mg/kg alone): 24% | Clinical score reduction at end of study (CIA DBA/1 mice [18]; 2 mg/kg): 17% | Clinical score reduction at end of study (CIA DBA/1 mice [18]; 4 mg/kg): 37% | Clinical score reduction at end of study (CIA DBA/1 mice [18]; 25 mg/kg): 67% | Disease-induced remodeling/erosions and loss of bone mass compared with vehicle (micro-CT) (CIA DBA/1 mice [18]; therapeutic, 2, 4 and 25 mg/kg): dose-dependent protection | Reduction of clinical scores (CIA DBA/1 mice [19]): 46% | IC50 (human tonsillar B cells [20]): 3 ± 1 nM

Structure (SMILES): CN(Cc1cnc2nc(N)nc(N)c2n1)c1ccc(C(=O)N[C@@H](CCC(=O)O)C(=O)O)cc1 [MTX, methotrexate, reference compound]
Reduction in inflammation and bone resorption (histology) (CIA DBA/1 mice [17]; MTX alone): 10%
